According to ChEMBL document CHEMBL1201862, “PubChem BioAssay data set” (2004):
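Compound exposure: 48 hours, 5 concentrations, 96-well plates. GI50 is the concentration that inhibits growth by half.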 Calls of active or inactive are those of the source. Cut-off read from the data, not from the text of the source: active = GI50 up to about 1.1 µM and inactive = higher.

What was measured:
Test in all cases: NCI-60 cell line screen, 48 h
[1] = system: A549
[2] = system: ACHN
[3] = system: CCRF-CEM
[4] = system: DLD-1
[5] = system: EKVX
[6] = system: HCC 2998
[7] = system: HT-29
[8] = system: IGROV-1
[9] = system: MOLT-4
[10] = system: SNB-19
[11] = system: SNB-75
[12] = system: UACC-62
[13] = system: HOP-92
[14] = system: Hs-578T
[15] = system: NCI-H226
[16] = system: OVCAR-3
[17] = system: OVCAR-5
[18] = system: SF-268
[19] = system: SK-MEL-5
[20] = system: T47D

| SMILES | GI50 [1] | GI50 [2] | GI50 [3] | GI50 [4] | GI50 [5] | GI50 [6] | GI50 [7] | GI50 [8] | GI50 [9] | GI50 [10] | GI50 [11] | GI50 [12] | GI50 [13] | GI50 [14] | GI50 [15] | GI50 [16] | GI50 [17] | GI50 [18] | GI50 [19] | GI50 [20] |
| --- | --- | --- | --- | --- | --- | --- | --- | --- | --- | --- | --- | --- | --- | --- | --- | --- | --- | --- | --- | --- |
| Oc1cc(-c2ccc[nH]2)nc2cc3c(cc12)OCO3 | 53.8 µM (inactive) | 88.1 µM (inactive) | 24.1 µM (inactive) | 34.4 µM (inactive) | 55.3 µM (inactive) | 28.8 µM (inactive) | 29.8 µM (inactive) | 33.3 µM (inactive) | 39.7 µM (inactive) | 37.7 µM (inactive) | 13.8 µM (inactive) | 27 µM (inactive) | – | – | – | – | – | – | – | – |
| CC(C)C[C@H]1[C@@H](OCc2ccccc2)COS(=O)(=O)N1[C@H](C)c1ccccc1 | 29.5 µM (inactive) | 48 µM (inactive) | 8.71 µM (inactive) | – | 22.1 µM (inactive) | > 100 µM (inactive) | 26.9 µM (inactive) | > 100 µM (inactive) | 3.8 µM (inactive) | > 46 µM (inactive) | > 46.7 µM (inactive) | > 100 µM (inactive) | > 100 µM (inactive) | > 100 µM (inactive) | > 92 µM (inactive) | 20.6 µM (inactive) | > 100 µM (inactive) | > 93.1 µM (inactive) | 5.55 µM (inactive) | 2.9 µM (inactive) |
| C=C(C)C12CC3CC/C(=N/O)C(C1)C3(N1CCOCC1)C/C2=N/O (stereo not given) | > 100 µM (inactive) | > 100 µM (inactive) | > 100 µM (inactive) | – | > 100 µM (inactive) | > 100 µM (inactive) | > 100 µM (inactive) | > 100 µM (inactive) | > 100 µM (inactive) | > 100 µM (inactive) | > 100 µM (inactive) | > 100 µM (inactive) | > 100 µM (inactive) | > 100 µM (inactive) | > 100 µM (inactive) | > 100 µM (inactive) | > 100 µM (inactive) | > 100 µM (inactive) | > 100 µM (inactive) | > 100 µM (inactive) |
| CC(/C=N/N=C1NCCCN1)=N\N=C1NCCCN1 | > 100 µM (inactive) | > 100 µM (inactive) | > 100 µM (inactive) | – | > 100 µM (inactive) | > 100 µM (inactive) | > 100 µM (inactive) | > 100 µM (inactive) | > 100 µM (inactive) | > 100 µM (inactive) | > 100 µM (inactive) | > 100 µM (inactive) | 40.2 µM (inactive) | > 100 µM (inactive) | > 100 µM (inactive) | > 100 µM (inactive) | > 100 µM (inactive) | > 100 µM (inactive) | > 100 µM (inactive) | > 100 µM (inactive) |
| CCOC(=O)Nc1ccc(C)c(NC(=O)OCC)c1 | > 100 µM (inactive) | > 100 µM (inactive) | > 100 µM (inactive) | – | 6.58 µM (inactive) | 56.2 µM (inactive) | > 100 µM (inactive) | 55.6 µM (inactive) | > 100 µM (inactive) | > 100 µM (inactive) | > 100 µM (inactive) | > 100 µM (inactive) | > 100 µM (inactive) | > 100 µM (inactive) | > 100 µM (inactive) | > 100 µM (inactive) | > 100 µM (inactive) | > 100 µM (inactive) | > 100 µM (inactive) | > 100 µM (inactive) |
| Cc1cc(N(CCC#N)S(=O)(=O)c2ccccc2)ccc1/C=C1N=C(/C=C/c2ccccc2)OC\1=O | > 100 µM (inactive) | > 100 µM (inactive) | > 100 µM (inactive) | > 100 µM (inactive) | > 100 µM (inactive) | > 100 µM (inactive) | > 100 µM (inactive) | > 100 µM (inactive) | 98.2 µM (inactive) | > 100 µM (inactive) | > 100 µM (inactive) | > 100 µM (inactive) | – | – | > 100 µM (inactive) | > 100 µM (inactive) | > 100 µM (inactive) | > 100 µM (inactive) | 77.6 µM (inactive) | – |
| Nc1c(O)c(C(=O)O)cc2ccccc12 | 45.4 µM (inactive) | 25.4 µM (inactive) | 37.8 µM (inactive) | – | 53.8 µM (inactive) | 94 µM (inactive) | 17 µM (inactive) | > 100 µM (inactive) | 29.8 µM (inactive) | > 100 µM (inactive) | 24.3 µM (inactive) | 17 µM (inactive) | 35 µM (inactive) | 37 µM (inactive) | 30.1 µM (inactive) | 24.3 µM (inactive) | 18.9 µM (inactive) | 42 µM (inactive) | 14.7 µM (inactive) | 37 µM (inactive) |
| COc1ccc(/C=C2\C(=O)N(C(=O)c3ccc(NC(C)=O)cc3)N=C2C)cc1OC | > 100 µM (inactive) | > 100 µM (inactive) | > 100 µM (inactive) | > 100 µM (inactive) | > 100 µM (inactive) | > 100 µM (inactive) | > 100 µM (inactive) | – | > 100 µM (inactive) | > 100 µM (inactive) | > 100 µM (inactive) | – | – | – | > 100 µM (inactive) | > 100 µM (inactive) | > 100 µM (inactive) | > 100 µM (inactive) | > 100 µM (inactive) | – |
| CCOC(=O)C1=C(C)N(NC(N)=O)C2(N)N(NC(N)=O)C(C)=C(C(=O)OCC)C12C(=O)OCC (stereo not given) | > 100 µM (inactive) | > 100 µM (inactive) | – | > 100 µM (inactive) | > 100 µM (inactive) | > 100 µM (inactive) | > 100 µM (inactive) | > 100 µM (inactive) | > 100 µM (inactive) | > 100 µM (inactive) | 47.8 µM (inactive) | > 100 µM (inactive) | – | – | > 100 µM (inactive) | > 100 µM (inactive) | > 100 µM (inactive) | > 100 µM (inactive) | > 100 µM (inactive) | – |
| O=[N+]([O-])c1nccn1COCCBr | > 100 µM (inactive) | > 100 µM (inactive) | > 100 µM (inactive) | > 100 µM (inactive) | > 100 µM (inactive) | – | > 100 µM (inactive) | – | > 100 µM (inactive) | > 100 µM (inactive) | > 100 µM (inactive) | > 100 µM (inactive) | > 100 µM (inactive) | – | > 100 µM (inactive) | > 100 µM (inactive) | > 100 µM (inactive) | > 100 µM (inactive) | > 100 µM (inactive) | – |
| COc1c(C(=O)/C(=N/Nc2ccc(C(=O)O)cc2)C(C)=O)c(O)cc2occc12 | > 100 µM (inactive) | > 100 µM (inactive) | > 100 µM (inactive) | – | > 100 µM (inactive) | > 100 µM (inactive) | > 100 µM (inactive) | > 100 µM (inactive) | > 100 µM (inactive) | > 100 µM (inactive) | 50.7 µM (inactive) | > 100 µM (inactive) | 43.4 µM (inactive) | > 100 µM (inactive) | > 100 µM (inactive) | > 100 µM (inactive) | > 100 µM (inactive) | > 100 µM (inactive) | 28.8 µM (inactive) | > 100 µM (inactive) |
| CCOC(=O)C1(Cc2ccccc2)CCCCCN1 (stereo not given) | > 100 µM (inactive) | > 100 µM (inactive) | – | > 100 µM (inactive) | > 100 µM (inactive) | > 100 µM (inactive) | > 100 µM (inactive) | > 100 µM (inactive) | – | – | 32.8 µM (inactive) | > 100 µM (inactive) | > 100 µM (inactive) | – | – | > 100 µM (inactive) | – | > 100 µM (inactive) | – | – |
| CCCCCCCCCC/C=C/CC(=O)SCCNC(=O)CCNC(=O)[C@@H](O)C(C)(C)COP(=O)(O)OP(=O)(O)OCC1OC(n2cnc3c(N)ncnc32)C(O)C1OP(=O)(O)O (stereo not given in full) | > 10 µM (inactive) | > 10 µM (inactive) | > 10 µM (inactive) | – | > 10 µM (inactive) | > 10 µM (inactive) | > 10 µM (inactive) | > 10 µM (inactive) | > 10 µM (inactive) | > 10 µM (inactive) | > 10 µM (inactive) | > 10 µM (inactive) | > 10 µM (inactive) | > 10 µM (inactive) | > 10 µM (inactive) | > 10 µM (inactive) | > 10 µM (inactive) | > 10 µM (inactive) | > 10 µM (inactive) | > 10 µM (inactive) |
| C=CCCCCCCCCC(=O)NS(=O)(=O)c1ccccc1 | 57.7 µM (inactive) | 71 µM (inactive) | – | 96.6 µM (inactive) | > 100 µM (inactive) | > 100 µM (inactive) | > 100 µM (inactive) | > 100 µM (inactive) | 48.6 µM (inactive) | > 100 µM (inactive) | 92.5 µM (inactive) | 53.2 µM (inactive) | 56.9 µM (inactive) | – | > 100 µM (inactive) | > 100 µM (inactive) | > 100 µM (inactive) | > 100 µM (inactive) | – | – |
| COc1ccc(/N=N/C(=O)NC(CC(C)C)C(=O)NC(Cc2ccccc2)C(=O)O)cc1 (stereo not given) | 2.12 µM (inactive) | 0.347 µM (active) | 0.929 µM (active) | – | 40.3 µM (inactive) | 2.63 µM (inactive) | > 100 µM (inactive) | 11.5 µM (inactive) | 0.706 µM (active) | 72.9 µM (inactive) | 61.4 µM (inactive) | 0.711 µM (active) | 16.2 µM (inactive) | > 100 µM (inactive) | 23.3 µM (inactive) | 16.5 µM (inactive) | 1.88 µM (inactive) | 1.53 µM (inactive) | 2.61 µM (inactive) | 1.06 µM (active) |
| O=C1c2ccccc2C(=O)N1C(=S)c1ccccc1 | > 100 µM (inactive) | > 100 µM (inactive) | > 100 µM (inactive) | – | > 100 µM (inactive) | > 100 µM (inactive) | > 100 µM (inactive) | > 100 µM (inactive) | > 100 µM (inactive) | > 100 µM (inactive) | > 100 µM (inactive) | > 100 µM (inactive) | > 100 µM (inactive) | > 100 µM (inactive) | > 100 µM (inactive) | > 100 µM (inactive) | > 100 µM (inactive) | > 100 µM (inactive) | > 100 µM (inactive) | > 100 µM (inactive) |
